Several values for one entry are separate records, joined by “and”; a condition that tells them apart may be missing. Equal values may be shown once.

The values that follow come from PMC4654502, “Early Gelatinase Activity Is Not a Determinant of Long-Term Recovery after Traumatic Brain Injury in the Immature Mouse” (PLoS ONE, 2015).

Data set [1] in a line: Pharmacokinetics and brain distribution after multiple-dose s.c. administration. It counts as in vivo, p21 naïve male C57Bl/6J mice. The method, then: Dosing route and concentration were similar to what we proposed to do for treatment for the current study. Terminal blood samples were collected in heparinized tubes through the posterior vena cava and centrifuged to obtain plasma (n = 3 per time point). Whole brain samples were harvested after transcardial perfusion with saline, immediately flash frozen in liquid nitrogen, and stored at -80°C until analysis.

The subject of data set [2] is controlled cortical impact TBI at p21. Put plainly: Morris water maze at adulthood after TBI at p21. It counts as in vivo, male C57Bl/6J mice. The note with it: 25 mg/kg s.c. at 2, 4, 24, 48 h post-injury. The protocol:
The controlled cortical impact model of TBI was used as previously described. TBI to the p21 mouse approximates a toddler-aged child, based upon the structural, biochemical and behavioral characteristics of this age. Pups were anaesthetized with 1.25% 2,2,2-tribromoethanol (Avertin; Sigma-Aldrich, St. Louis, MO) in isotonic saline (i.p. bolus at 0.02 mL/g body weight). After craniotomy, mice were subjected to a controlled cortical impact at 4.5 m/s velocity and 1.73 mm depth of penetration, for a sustained depression of 150 ms, using a 3.0 mm convex impactor tip. Mice were maintained on a water-circulating heating pad throughout surgery and recovery. Following impact, the scalp was closed with sutures and each animal administered 0.5 ml of isotonic saline subcutaneously (s.c.) to prevent post-operative dehydration. Sham-operated mice underwent identical surgical procedures, including craniotomy, without receiving the cortical impact. All mice were closely monitored for 1–2 hours post-surgery until return of the righting reflex and full mobilization. Mice were then returned to group-housing, and weighed post-surgery at days 1, 3, and weekly thereafter till the end of the study.
The treatment regime was based upon several considerations. […] Thirdly, we limited treatment to a period of 48 h post-injury in order to minimize potential off-target effects on ongoing brain development processes at this time, given the known roles that these gelatinases play in postnatal synaptic maturation. For acute studies (gelatin zymography and histology) animals were euthanized at 4 hours and for in situ zymography, they were euthanized 1 hour after the last injection. For long-term studies (behavioral and cognitive assessments and histology) animals were euthanized at ~2 months post-injury. Euthanasia was by overdose with 2.5% Avertin i.p. followed by decapitation or cardiac transperfusion as described below.
Mice were randomized for behavior testing and all behavior testing was performed by individuals blinded to injury and treatment. Behavioral and cognitive testing of brain injured mice and sham controls commenced at 2 months post-injury (~ 3 months of age; n = 15/group). An extensive battery of behavioral assessments was performed in the following order: open field, rotarod, elevated plus maze, three-chamber social task, resident-intruder, and Morris water maze (MWM). […]
The MWM was used to assess spatial learning and memory as previously described, using a 140 cm-diameter circular pool filled with opaque water (22°C). […] Movements were tracked with an overhead mounted video camera interfaced with Noldus EthoVision software (Noldus IT, Tacoma, WA), for quantification of the cumulative distance to and latency to locate the platform, as well as swim velocity (cm/s). […]

Where [3] appears, read: 25 mg/kg s.c. at 0, 2 and 24 h, p21 mice.
Where [4] appears, read: 0.5 h after final dose, 25 mg/kg s.c. at 0, 2 and 24 h, p21 mice.
Where [5] appears, read: 1 h after final dose, 25 mg/kg s.c. at 0, 2 and 24 h, p21 mice.
The mark [6] stands for this setting: 2 h after final dose, 25 mg/kg s.c. at 0, 2 and 24 h, p21 mice.

`O=S(=O)(CC1CS1)c1ccc(Oc2ccc(O)cc2)cc1` (stereo not shown) [p-OH SB-3CT]: in data set [1] (setting [3]), the “AUC 0-last, brain” value is 189 pmol·min/mg; the “AUC 0-last, plasma” value was determined as 273 µM·min; the “AUC 0-∞, brain” value stood at 191 pmol·min/mg; the “AUC 0-∞, plasma” value was found to be 276 µM·min. The “Brain AUC /Plasma AUC” value in data set [1] (setting [3]) came to 0.693. In data set [1] (setting [4]), this compound had a Brain concentration of 4.67 ± 1.60 pmol/mg tissue and a Plasma concentration of 6490 ± 4490 nM. In addition, the “peak brain level expressed as concentration” value in data set [1] (30 min after final dose, assuming a density of 1 g/mL) came to 4.67 µM. In data set [1] (setting [5]), the Brain concentration came to 0.905 ± 1.09 pmol/mg tissue and the Plasma concentration turned out to be 1660 ± 1820 nM. Further, in data set [1] (setting [6]), the Brain concentration is listed as 0.0772 ± 0.0211 pmol/mg tissue and the Plasma concentration came out at 122 ± 76.2 nM. Also, the Brain concentration in data set [1] (4 h after final dose, 25 mg/kg s.c. at 0, 2 and 24 h, p21 mice, 25 mg/kg) is 0.0209 ± 0.0058 pmol/mg tissue and 0.0209 ± 0.00578 pmol/mg tissue. Further, in data set [1] (s.c., after the final dose), the “time to peak concentration in brain” value turned out to be 30 min and the “time to peak concentration in plasma” value was 30 min. In data set [2] (four probe trials), the “MWM probe trials, effect of injury on spatial memory retention” value was “not rescued by acute inhibition of gelatinases with p-OH SB-3CT”. Moreover, in data set [2] (tested at adulthood), the “MWM cumulative distance to the target, visible and hidden sessions” value is listed as “no effect of p-OH SB-3CT treatment”; the “MWM latency to reach the platform, visible and hidden platform sessions” value was “did not modify this injury-related behavior”; the “MWM swim velocity during visible platform trials” value is listed as “not influenced”.
